Measurements as given in ChEMBL document CHEMBL2390887, “Pyrazole derivatives as inhibitors of arachidonic acid-induced platelet aggregation” (Eur J Med Chem, 2013).
Activity calls are given as the source filed them. No cut-off for these calls is given here.

Assays:
Type in all cases: functional
[1] = Antiplatelet activity in human platelet rich plasma assessed as inhibition of arachidonic acid-induced platelet aggregation preincubated for 3 mins before arachidonic acid challenge by turbidimetric method
Platelet [2] = assay: (§1) Antiplatelet activity in human platelet rich plasma assessed as inhibition of ADP-induced platelet aggregation at 10 uM preincubated for 3 mins before ADP challenge by turbidimetric method
[3] = Antiplatelet activity in human platelet rich plasma assessed as inhibition of collagen-induced platelet aggregation at 10 uM preincubated for 3 mins before collagen challenge by turbidimetric method
[4] = (§2) Antiplatelet activity in human platelet rich plasma assessed as inhibition of arachidonic acid-induced platelet aggregation at 1 uM preincubated for 3 mins before arachidonic acid challenge by turbidimetric method
[5] = (§3) Antiplatelet activity in human platelet rich plasma assessed as inhibition of arachidonic acid-induced platelet aggregation at 10 uM preincubated for 3 mins before arachidonic acid challenge by turbidimetric method
[6] = Antiplatelet activity in human platelet rich plasma assessed as inhibition of collagen-induced platelet aggregation at 1 uM preincubated for 3 mins before collagen challenge by turbidimetric method
[7] = as §1
Platelet [8] = assay: as §2
Platelet [9] = assay: as §3
[10] = Antiplatelet activity in human platelet rich plasma assessed as inhibition of arachidonic acid-induced platelet aggregation at 100 uM preincubated for 3 mins before arachidonic acid challenge by turbidimetric method

Structure (SMILES)	IC50 [1]	inhibition at 10 µM [3]	inhibition at 1 µM [4]	inhibition at 10 µM [5]	also measured
O=C(c1cc(-c2ccc(Cl)cc2)n(-c2ccc(=O)[nH]n2)n1)N1CCCCC1	2.09 µM				
COc1ccc(-n2nc(C(=O)Oc3cccc(C(C)C)c3)cc2-c2ccc(Cl)cc2)nn1		42.3%	8.97%	84%	inhibition (Platelet [2]): inactive
COc1ccc(-n2nc(C(=O)N3CCN(c4ncccn4)CC3)cc2-c2ccc(Cl)cc2)nn1		22.9%			inhibition at 10 µM [7]: 2.7%; inhibition (Platelet [8]): inactive; inhibition (Platelet [9]): inactive
CCOC(=O)c1cc(-c2ccc(Cl)cc2)n(-c2ccc(Cl)nn2)n1					inhibition at 100 µM [10]: 67%
CS(=O)(=O)c1ccc(-n2nc(C(=O)N3CCCCC3)cc2-c2ccc(Cl)cc2)nn1	19.6 µM				
COc1ccc(-n2nc(C(=O)N3CCN(c4ccc(F)cc4)CC3)cc2-c2ccc(Cl)cc2)nn1		32.2%		79.7%	inhibition (Platelet [2]): inactive; inhibition (Platelet [8]): inactive
COc1ccc(-n2nc(C(=O)N3CCN(c4ccc(C)cc4)CC3)cc2-c2ccc(Cl)cc2)nn1	4.67 µM	20.1%	3.96%	97.6%	inhibition (Platelet [2]): inactive
CS(=O)(=O)c1ccc(-n2nc(C(=O)N3CCOCC3)cc2-c2ccc(Cl)cc2)nn1	> 20 µM				
COc1ccc(OC(=O)c2cc(-c3ccc(Cl)cc3)n(-c3ccc(OC)nn3)n2)cc1		24.2%	6.05%	84.2%	inhibition (Platelet [2]): inactive
COc1ccc(-n2nc(C(=O)Oc3ccc(C)cc3)cc2-c2ccc(Cl)cc2)nn1		48.5%	23.6%	95%	inhibition (Platelet [2]): inactive
COc1ccc(-n2nc(C(=O)Oc3ccc4ccccc4c3)cc2-c2ccc(Cl)cc2)nn1		22.4%	2.36%	86.3%	inhibition at 10 µM [7]: 3.34%
COc1ccc(-n2nc(C(=O)Oc3cccnc3Cl)cc2-c2ccc(Cl)cc2)nn1		8.49%		86.5%	inhibition (Platelet [2]): inactive; inhibition (Platelet [8]): inactive
CCCOc1ccc(OC(=O)c2cc(-c3ccc(Cl)cc3)n(-c3ccc(OC)nn3)n2)cc1		61.9%	3.87%	93%	inhibition at 1 µM [6]: 32.2%; inhibition (Platelet [2]): inactive
COc1ccc(-c2onc(C(=O)N3CCCCC3)c2-c2ccc(Cl)cc2)cc1	5.03 µM				
COc1ccc(-n2nc(C(=O)Oc3ccc(C4CCCC4)cc3)cc2-c2ccc(Cl)cc2)nn1		19.9%		86.7%	inhibition (Platelet [2]): inactive; inhibition (Platelet [8]): inactive
COc1ccc(-n2nc(C(=O)Oc3ccc(-n4ccnc4)cc3)cc2-c2ccc(Cl)cc2)nn1		2.11%	5.25%	90%	inhibition (Platelet [2]): inactive

The next lines start with results.

IC50 [1]	Structure (SMILES)	inhibition at 10 µM [3]	inhibition at 1 µM [4]	inhibition at 10 µM [5]	also measured
> 10 µM	COc1ccc(-n2nc(C(=O)N3CCCCC3)cc2C)nn1				
0.083 µM	COc1ccc(-n2nc(C(=O)N3CCOCC3)cc2-c2ccc(Cl)cc2)nn1	70.9%	92.7%	94.8%	inhibition at 1 µM [6]: 74.2%; inhibition at 10 µM [7]: 11.3%
12.6 µM	O=C(c1cc(-c2ccc(Cl)cc2)n(-c2ccc(=O)[nH]n2)n1)N1CCOCC1				
> 10 µM	Cn1nc(-c2ccc(Cl)cc2)cc1C(=O)N1CCCCC1				
5.49 µM	COc1ccc(-n2nc(C(=O)N3CCN(c4ccc(C(F)(F)F)cn4)CC3)cc2-c2ccc(Cl)cc2)nn1	16%	10.9%	65.5%	inhibition at 10 µM [7]: 6.8%
18.4 µM	COc1ccc(-c2onc(C(=O)N3CCOCC3)c2-c2ccc(Cl)cc2)cc1				
0.0073 µM	COc1ccc(-n2nc(C(=O)N3CCOCC3)cc2-c2ccc(Cl)cc2)cc1				
0.11 µM	COc1ccc(-n2nc(C(=O)Nc3ccncc3)cc2-c2ccc(Cl)cc2)nn1	73.6%	84.9%	80.5%	inhibition at 1 µM [6]: 77.6%; inhibition at 10 µM [7]: 8.14%
7.76 µM	CC(=O)Oc1ccccc1C(=O)O [ASPIRIN]				
1.08 µM	COc1ccc(-n2nc(CCC(=O)N3CCOCC3)cc2-c2ccc(Cl)cc2)nn1				
> 10 µM	O=C(c1cc(-c2ccc(Cl)cc2)n[nH]1)N1CCOCC1				
0.0079 µM	COc1ccc(-n2nc(C(=O)N3CCCCC3)cc2-c2ccc(Cl)cc2)cc1				
1.33 µM	COc1ccc(-n2nc(C(=O)OCCC(C)C)cc2-c2ccc(Cl)cc2)nn1	66.7%	19%	91.2%	inhibition at 1 µM [6]: 34.2%; inhibition at 10 µM [7]: 6.77%
0.4 µM	COc1ccc(NC(=O)c2cc(-c3ccc(Cl)cc3)n(-c3ccc(OC)nn3)n2)cc1	72.1%	94.2%	79.9%	inhibition at 1 µM [6]: 43.6%; inhibition at 10 µM [7]: 3.92%
0.041 µM	COc1ccc(-n2nc(C(=O)N3CCCCC3)cc2-c2ccc(Cl)cc2)nn1	71.1%	92.9%	94.8%	inhibition at 1 µM [6]: 76.8%; inhibition (Platelet [2]): inactive
1.62 µM	COc1ccc2c(c1)c(CC(=O)O)c(C)n2C(=O)c1ccc(Cl)cc1 [INDOMETHACIN]				
> 10 µM	Cn1nc(-c2ccc(Cl)cc2)cc1C(=O)N1CCOCC1				
0.015 µM	COc1ccc(-n2nc(C(=O)N3CCCC3)cc2-c2ccc(Cl)cc2)nn1				
0.0057 µM	COc1ccc(-n2nc(C(=O)N3CCCC3)cc2-c2ccc(Cl)cc2)cc1				
0.92 µM	COc1ccc(-n2nc(CCC(=O)N3CCCCC3)cc2-c2ccc(Cl)cc2)nn1				
0.61 µM	COc1ccc(-n2nc(C(=O)Nc3ccc(Cl)cc3)cc2-c2ccc(Cl)cc2)nn1	70.5%	80.9%	74.3%	inhibition at 1 µM [6]: 25.7%; inhibition at 10 µM [7]: 7.93%
> 10 µM	COc1ccc(-n2nc(C(=O)N3CCOCC3)cc2C)nn1				
> 10 µM	O=C(c1cc(-c2ccc(Cl)cc2)n[nH]1)N1CCCCC1				
